Results published in ChEMBL document CHEMBL1157539, “Thousands of chemical starting points for antimalarial lead identification” (Nature, 2010).

System: Plasmodium falciparum
Test: GSK_TCMDC: Inhibition of Plasmodium falciparum 3D7 in whole erythrocytes, using parasite LDH activity as an index of growth.
Format: functional, organism-based
Settings: Plasmodium falciparum, 3D7

Structure (SMILES) | XC50 [nM]
COc1cc2s/c(=N\C(=O)c3cccc([N+](=O)[O-])c3)n(C)c2cc1OC | 722
Cc1ccccc1CNc1ccc2nc(N)nc(N)c2c1 | 171
N=C(N)c1cccc(-c2cc(-c3cccc(C(=N)N)c3)on2)c1 | 86
CC(=O)Nc1cccc(C(=O)Nc2ccc(-c3cccc(-c4nc5cc(C(F)(F)F)ccc5[nH]4)c3)cc2)c1 | 148
O=C(Nc1cccc(C(F)(F)F)c1)c1cccc(S(=O)(=O)NCC2CCCN2CC2CCCCC2)c1 (stereo unspecified) | 1110
COc1ccc2c(NN=Cc3ccccc3F)ccnc2c1 | 213
CCNc1cc(C(=O)N[C@@H](Cc2ccccc2)[C@H](O)CNC2(Cc3cccc(Cl)c3)CCC2)cc(N2CCCCS2(=O)=O)c1 | 1180
CCc1cccc2c(C#N)cn(CC(=O)NCCc3ccccc3)c12 | 887
CC(C)(CNCc1ccc(C(F)(F)F)cc1)c1nc(-c2ccc(Cl)c(O)c2)c(-c2ccncc2)[nH]1 | 734
CC(c1cccc(S(=O)(=O)NCc2ccc(Cl)cc2Cl)c1)N1CCC(N2CCCCC2)CC1 (stereo unspecified) | 747
COc1cccc2c(NN=Cc3ccc(Cl)cc3)ccnc12 | 814
CCCc1cc(C(=O)N[C@@H](Cc2ccccc2)[C@H](O)CNC(C)C)c(F)c(N2CCCC2=O)c1 | 943
CC(C)CNC(=O)c1cncc(-c2ccc(CN3CCC(N4CCCC4)CC3)cc2)c1 | 689
COc1cc2c(cc1OC)CN(CCCCc1ccc(NC(=O)c3cc(Cl)cc(Cl)c3)cc1)CC2 | 1200
CC(=O)Nc1ccc(CN2CCC(CNC(=O)c3cc(-c4cccc(C(F)(F)F)c4)cs3)C2)cc1 (stereo unspecified) | 1100
CC(=O)N[C@H](C(=O)Nc1ccc(-c2ccc(-c3nc4cc(C(F)(F)F)ccc4[nH]3)s2)cc1)C(C)C | 1030
Cc1cc(C2CCN(CCCCNC(=O)c3ccc(-c4ccc(C(F)(F)F)cc4)cc3)CC2)c(C)cc1OCC(N)=O | 805
COc1ccc(CN(C)CCOc2ccc(NC(=O)c3cccc4c(=O)cc(-c5ccccc5)[nH]c34)cc2)cc1OC | 921
Cc1nc(N)nc(N)c1-c1ccc(Br)cc1 | 232
O=S(=O)(/C=C/c1ccccc1)N(Cc1ccc(-c2ccc(CNCCc3ccccc3)cc2)cc1)CC1CCCCN1 (stereo unspecified) | 794
COc1cc2nc(NCCn3cccn3)nc(NCCc3ccccc3)c2cc1OC | 281
CN(C)S(=O)(=O)c1ccc(C(=O)N(c2nc(-c3ccccc3)cs2)C2CCCCC2)cc1 | 760
COc1ccccc1NC(=O)c1cc(C(=O)c2cc(Cl)ccc2O)cn(-c2ccccc2OC)c1=O | 943
COCCNCc1cccc(-c2cccc(CNC3CCN(Cc4ccccc4)CC3)c2)c1 | 283

Structure (SMILES) | XC50 [nM]
CCOc1cc(C(C)C)ccc1C1CCN(CCCCNC(=O)c2ccc(NC(=O)c3ccc(Cl)cc3)cc2)CC1 | 813
CN1CCN(c2ccnc3ccc(NC(=O)Nc4cccc5ccccc45)cc23)CC1 | 488
COc1cccc2sc(N3CCN(C(=O)c4ccc([N+](=O)[O-])o4)CC3)nc12 | 869
Cc1ccc(-n2c(Cc3cccc4ccccc34)nnc2SCCC#N)c(C)c1 | 465
COc1ccc(-c2ncnc(C(F)(F)F)c2-c2ccc(Cl)cc2)c(O)c1 | 805
Cc1ccccc1C1CCN(c2ccc(C(=O)Nc3ccc(F)cc3)cn2)CC1 | 194
CC(CNC(=N)c1cccc(C(=N)NCC(C)Oc2cccc(C3CCCCC3)c2)n1)Oc1cccc(C2CCCCC2)c1 (stereo unspecified) | 917
Cc1c(Cn2ncc(N3CCC(N)CC3)c(Cl)c2=O)cccc1NC(=O)Nc1ccc(-c2ccccc2)cc1 | 697
COc1cc(Nc2ncc3c(C)nc(-c4cc5ccccc5[nH]4)n3n2)cc(OC)c1OC | 1020
Cc1onc(-c2c(Cl)cccc2Cl)c1C(=O)N1CCc2cc3nccc(N4CCN5CCC[C@H]5C4)c3cc21 | 768
Cc1cc(N(CCO)CCCN2CCCCC2)nc(Nc2ccc(Cl)cc2)n1 | 547
CCN1CCC2(c3cccc(OC)c3)Cc3nc4ccccc4c(-c4ccccc4)c3CC2C1 (stereo unspecified) | 348
O=C(Nc1ccc(Cl)cc1)Nc1ccc(-c2csc(-c3nc4ccccc4[nH]3)c2)cc1 | 799
COc1cccc(Cc2cnc3nc(N)nc(N)c3c2C)c1 | 173
N#Cc1ccc2c(c1)CCN(CCC1CCC(NC(=O)c3ccc(-c4ccccn4)s3)CC1)CC2 (stereo unspecified) | 1010
CN(CCCCCNC(=O)/C=C/c1ccc(Cl)c(Cl)c1)CCc1c[nH]c2ccccc12 | 874
O=C(Nc1ccc(Cl)cc1)NC1CCN(CCCCCNC(=O)C2CC2c2ccc(Cl)c(Cl)c2)CC1 (stereo unspecified) | 576
O=S(=O)(Nc1cc2c(cc1OCCCN1CCCCC1)CCNCC2)c1ccc(-c2ccc(Cl)cc2)cc1 | 1000
OC(CN1CCN(C2CCCCC2)CC1)Cn1c2ccccc2c2cc(Br)ccc21 (stereo unspecified) | 857
CN(CCc1ccccc1)c1ncc(-c2ccccc2CNCc2ccccc2O)cn1 | 1020
CC(C)CNCc1ccc(-c2cccc(CNC3CCN(Cc4ccccc4)CC3)c2)cc1 | 239
O=C(OCc1ccccc1)N1CCc2c([nH]c3ccccc23)C1CCC(F)(F)F (stereo unspecified) | 425
COCCNCc1ccc(-c2ccc(CN(C(=O)NC3CCCCC3)C3CCN(Cc4ccccc4)CC3)cc2)cc1 | 960
O=C(Nc1ccc(-c2cccc(-c3nc4cc(C(F)(F)F)ccc4[nH]3)c2)cc1)c1ccncc1 | 664

Structure (SMILES) | XC50 [nM]
CS(=O)(=O)N(c1ccccc1)c1cc(C(=O)N[C@@H](Cc2ccccc2)[C@H](O)CNC2CCCCC2)cc(N2CCCC2=O)c1 | 78.1
Nc1c2ccccc2nc2ccc(-c3ccccc3)cc12 | 140
COc1cc(NC(=O)Nc2ccc([N+](=O)[O-])cc2OC)c(OC)cc1Cl | 1470
Cc1nc(N)nc(N)c1CCCOc1cccc(Cl)c1 | 476
COc1ccc2[nH]ccc(=NN=Cc3ccccc3Cl)c2c1 | 664
O=c1cc(NCCCNC2CCOc3c(Cl)cc(Cl)cc32)[nH]c2ccccc12 (stereo unspecified) | 724
CN1CCCC1CCNC(=O)[C@H](CC1CCCCC1)NC(=O)c1ccc(O)c(-c2ccc(Cl)c(Cl)c2)c1 (stereo partly specified) | 736
COCCn1c(C)nc2ccccc2c1=O | 1460
CCN(CC)c1ccc2nc(N)nc(N)c2c1Cl | 30.9
COc1c(Br)cc(Br)cc1C(C)=O | 989
O=C(Nc1cccc(-c2ccc(-c3nc4cc(C(F)(F)F)ccc4[nH]3)s2)c1)c1c[nH]cn1 | 1110
COc1cc(C(=O)NC2CCc3ccccc32)cc(Cl)c1OC (stereo unspecified) | 1100
c1ccc(CN2CCN(CCCCNc3c4ccccc4nc4ccccc34)CC2)cc1 | 117
O=C(Nc1ccc(Oc2ccccc2)cc1)N(CCN1CCCC1)Cc1ccc(-c2ccc(CN3CCNCC3)cc2)cc1 | 892
OCc1ccc2nc3c(cc2c1)-c1cccc2cccc-3c12 | 664
O=C(NC12CC3CC(CC(C3)C1)C2)C(=O)c1c[nH]c2ccccc12 | 232
Cc1cccc2nc(-c3ccc(-c4cccc(CNCCc5ccncc5)c4)s3)[nH]c12 | 138
N#Cc1c(N2CCCCCC2)nc(N)c2c(N)nc3c(c12)CC(=O)N3c1ccc(F)cc1 | 213
O=C(NC1CCCCC1)N(Cc1ccc(-c2ccc(CNC3CCCC3)cc2)cc1)C1CCN(Cc2ccccc2)CC1 | 780
CCc1cn(C)c2c(N3CCCC3=O)cc(C(=O)N[C@@H](Cc3ccccc3)[C@H](O)CNC3CCCCC3)cc12 | 118
Fc1ccc2nc(Nc3nc(-c4ccccn4)cs3)sc2c1 | 560
O=C(c1cc(C(=O)NCc2ccc(Cl)cc2)c(=O)n(Cc2ccc(Cl)cc2)c1)c1cc(F)ccc1O | 949
c1ccc(CNCCn2c(-c3ccc4c(c3)CCO4)nc3c(N4CCCC4)cccc32)cc1 | 1130
